Laboratory results from patent publication US7696236B2, “Method of providing pirfenidone therapy to a patient” (InterMune, Inc., priority 2006, dated 2010).

How the values were obtained:
[1] = adverse events associated with pirfenidone therapy in patients; type: in vivo, patient; settings: dosing escalation scheme described herein (up to 2,403 mg per day, full dosage about Day 15)
Method: As an investigational drug, pirfenidone is provided in tablet and capsule forms principally for oral administration. Various formulations have been tested and adopted in clinical trials and other research and experiments. […] Many of these effects can interfere with everyday activities and quality of life. These effects appear to be dose related. The adverse reactions associated with pirfenidone therapy are exacerbated when pirfenidone is administered at these higher doses.
The present invention overcomes the unmet clinical need by providing an improved, optimized dose escalation scheme for the administration of pirfenidone. The dose escalation scheme of the present invention provides pirfenidone in an amount such that the full maximum dosage is not reached for at least one week. In a preferred embodiment, the full maximum dosage of pirfenidone is not reached until about Day 15 of treatment. The method of the present invention allows for a maximum dosage of 2,403 mg of pirfenidone per day to be administered to a patient and also reduces the incidence of adverse events associated with the administration of pirfenidone by more accurately matching dose escalation with tolerance development in the patient. […]

[2] = test system: fibrogenic cytokines such as TGF-β1, bFGF, PDGF, and EGF; settings: Zhang S et al. 1998; cited from earlier work
TNF-α = settings: from macrophages and other cells; Cain et al. 1998; cited from earlier work
[3] = oral tablet and capsule forms, clinical trials; effects appear to be dose related; cited from earlier work

SMILES: Cc1ccc(=O)n(-c2ccccc2)c1 [pirfenidone, 5-methyl-1-phenyl-2-(1H)-pyridone]
- adverse events, such as somnolence and photosensitivity reaction, as the dosage escalates [1]: decrease
- excessive biosynthesis or release of various fibrogenic cytokines [2]: inhibits
- synthesis and release of excessive amounts of TNF-α (TNF-α): blocks
- most common adverse reactions or events associated with pirfenidone therapy [3]: gastrointestinal upset, nausea, fatigue, somnolence, dizziness, headache, and photosensitivity rash
